Source: patent US9271961B2, “Bifunctional AKR1C3 inhibitors/androgen receptor modulators and methods of use thereof” (THE TRUSTEES OF THE UNIVERSITY OF PENNSYLVANIA, priority 2011, dated 2016)

Assays:
[1] = system: AKR1C enzymes; experiment: Inhibition of AKR1C enzymes (FIG. 20); assay type: biochemical
[2] = target: T1, AKR1C3 (Homo sapiens (Human), UniProt P42330); experiment: Inhibition of NADP+ dependent oxidation of S-tetralol by recombinant AKR1C3; assay type: biochemical; details: for IC50: S-tetralol oxidation, substrate at KM
Experimental: The inhibitory potency of the compounds disclosed herein was determined using purified homogenous recombinant enzymes. Full concentration response studies were conducted and IC50 values calculated using Grafit 5.0 software. The compounds were evaluated for their effects on enzyme catalyzed oxidation of S-tetralol using a 96-well plate format.
The primary screen was also modified to report the following ratio: AKR1C2 IC50 value:AKR1C3 IC50 value. […] When bifunctional AKR1C3 and SARMs are sought the androgen receptor reporter gene assay is moved up in sequence.
Based on this assumption, the screening strategy adopted was to determine the inhibitory potency of each compound against AKR1C2 and AKR1C3 and use the ratio of IC50 value for AKR1C2:IC50 value for AKR1C3 as an index of compound selectivity for AKR1C3. The inhibitory potency of compounds on AKR1C2 and AKR1C3 was determined by measuring the inhibition of the NADP^+ dependent oxidation of S-tetralol.

[3] = target: T1, AKR1C3; experiment: Conversion of Δ4-AD to testosterone in LNCaP cells stably transfected with AKR1C3; assay type: cell-based; details: for amount of testosterone formed from Δ4-AD: LNCaP-AKR1C3 cells; for conversion of Δ4-AD to testosterone: LNCaP-AKR1C3 transfected cells, 10 μM
Experimental: LNCaP cells were stably transfected with AKR1 C3 using the retroviral construct pLNCX-AKR1C3, and its expression was documented using both RT-PCR and immunoblot analysis using an isoform specific monoclonal AKR1C3 antibody (Byrns et al., 2012, J. Steroid Biochem. Mol. Biol. 130:7-15). Metabolism studies of 0.1 μM and 5.0 μM [^14C]-Δ^4-AD were conducted in LNCaP and LNCaP-AKR1C3 cells with the anticipation that the transfected cells would form more testosterone. The bulk of the metabolites formed in LNCaP cells were found in the aqueous phase. When this phase was treated with β-glucuronidase (200 units/mL at pH 6.6) and re-extracted, androsterone was the predominate metabolite released into the organic soluble fraction providing evidence for the formation of androsterone-3α-glucuronide. When LNCaP-AKR1C3 transfected cells were used, the bulk of the metabolites were again found in the aqueous phase. However, β-glucuronidase treatment of the aqueous phase yielded both androsterone and testosterone, providing evidence for testosterone formation by these cells.
Tertiary screens of the compounds of interest include: (a) inhibition of the conversion of Δ^4-AD to testosterone in LNCaP (AR dependent prostate cancer) cells stably transfected with AKR1C3; (b) inhibition of Δ^4-AD mediated cell proliferation in LNCaP cells stably transfected with AKR1C3; and (c) inhibition of growth of castrate resistant prostate cancer cells in culture.

[4] = target: COX-1 (Homo sapiens (Human), UniProt P23219); experiment: Screen against COX-1; assay type: biochemical
[5] = target: aldose reductase (AKR1B1) (Homo sapiens (Human), UniProt P15121); experiment: Secondary screen against aldose reductase; assay type: biochemical
[6] = target: T1, AKR1C3; experiment: Inhibition of AKR1C3 catalyzed reduction of Δ4-androstene-3,17-dione to testosterone; assay type: biochemical
From the text: Compounds may be evaluated as selective reversible inhibitors of AKR1C3 by screening them against homogeneous recombinant AKR1C1-AKR1C4 expressed in E. coli. […] IC50 values are generated using steroid concentrations at KM.
The primary screen was also modified to report the following ratio: AKR1C2 IC50 value:AKR1C3 IC50 value. A high ratio reflects a high selectivity for AKR1C3 and data are used to generate heat-maps, FIG. 14. This method is preferred to measuring percent inhibition using a single concentration of 1.0 μM inhibitor, since this single point method is prone to identifying false positives. […] The leads may then be moved into secondary in vitro screens (complete screen against all human AKR isoforms; COX-1 and COX-2; and other relevant human 17β-HSD isoforms); tertiary screens using cell-based assays (inhibition of AKR1C3 mediated testosterone production and AKR1C3 mediated cell proliferation in prostate cancer cell lines; and modulation of the androgen receptor in reporter gene assays); and quaternary screens in xenograft models of CRPC. When bifunctional AKR1C3 and SARMs are sought the androgen receptor reporter gene assay is moved up in sequence.

[7] = system: prostatic specific antigen (PSA) gene expression; experiment: AR regulated PSA gene expression in LNCaP cells; assay type: cell-based; details: 10-30 μM, presence and absence of 5α-DHT (0.1-1.0 nM)
[8] = system: mutated AR and PSA expression; experiment: Mutated AR levels and PSA expression in LNCaP-AKR1C3 cells; assay type: cell-based; details: presence of either 1.0 nM 5α-DHT or 100 nM Δ4-AD
[9] = target: retinal reductase (AKR1B10) (Homo sapiens (Human), UniProt O60218); experiment: Secondary screen against retinal reductase; assay type: biochemical
[10] = target: T2, AR (Homo sapiens (Human), UniProt P10275); experiment: AR nuclear translocation from the cytosol in HeLa 13 cells; details: presence of DHT
From the text: AR LE and AR SE=long and short exposure to detect cytoplasmic AR. β-tubulin was used as a loading control.

[11] = target: COX-2 (Homo sapiens (Human), UniProt P35354); experiment: Screen against COX-2; assay type: biochemical
[12] = target: T2, AR; experiment: AR stability / degradation in Hela cells; assay type: cell-based; details: 10-40 μM, presence and absence of 0.1 nM 5α-DHT

4-chloro-N-phenylanthranilate [reference compound]
inhibition of AKR1C enzymes [1]: inhibits

O=C(O)c1ccccc1Nc1cccc(C(F)(F)F)c1 [Compound 1, Flufenamic Acid, reference compound]
IC50 [2]: 50 nM

O=C(O)c1cccc(Nc2ccccc2)c1 [Compound 3, 3-Phenylamino benzoic acid]
IC50 [2]: 940 nM

O=C(O)c1cccc(Nc2ccc([N+](=O)[O-])cc2)c1 [Compound 5, 3-[N-(4-nitrophenyl)amino]benzoic acid]
AKR1C3 inhibitory potency (in words) [2]: low nanomolar range
IC50 [2]: 36 nM

O=C(O)c1cccc(Nc2ccc(C(F)(F)F)cc2)c1 [Compound 7, 3-[N-(4-Trifluoromethylphenyl)amino]benzoic acid]
amount of testosterone formed from Δ4-AD [3]: significant decline

O=C(O)c1cccc(Nc2ccc(Cl)cc2)c1 [Compound 8, 3-[N-(4-Chlorophenyl)amino]benzoic acid]
conversion of Δ4-AD to testosterone [3]: completely blocked

O=C(O)c1cccc(Nc2ccc([N+](=O)[O-])c3ccccc23)c1 [Compound 13, 3-((4-nitronaphthalen-1-yl)amino)benzoic acid]
inhibition of COX-1 [4]: failed to inhibit
inhibition of aldose reductase (AKR1B1) [5]: failed to inhibit
pattern of inhibition of AKR1C3 ([6]; Δ4-AD as substrate, E.NADPH.Δ4-AD complex): competitive inhibition
Ki ([6]; Δ4-androstene-3,17-dione as substrate): 2470 nM
amount of testosterone formed from Δ4-AD [3]: significant decline
conversion of Δ4-AD to testosterone [3]: completely blocked
expression of PSA [7]: block the expression of PSA
expression of the mutated AR and PSA [8]: decrease
inhibition of retinal reductase (AKR1B10) [9]: failed to inhibit
cytoplasmic AR (prevention of nuclear localization of the AR) [10]: dose dependent increase in cytoplasmic AR
slope factor of the inhibition dose-response curve ([2]; AKR1C3): approximately two
Ki ([2]; S-tetralol as substrate): 58.2 nM
pattern of inhibition of AKR1C3 ([2]; S-tetralol as substrate, E.NADP+.S-tetralol complex): competitive inhibition
IC50 [2]: 75 nM
inhibition of COX-2 [11]: failed to inhibit
degradation of the AR [12]: dose-dependent degradation
